The values that follow come from patent US8778973B2, “Alkene oxindole derivatives” (Hoffmann-La Roche Inc., priority 2009, dated 2014).

Usually EC50 stands for the concentration that produces a half-maximal response.

The assay deals with Recombinant human AMPK proteins (α1β1γ1, α2β1γ1, α1(1-335), α1(1-394) or α2(1-394)). The assay can be described thus: Scintillation Proximity Assay (SPA) of AMPK activation. It counts as biochemical. As to conditions: activator concentration for 50% of maximal enzyme activity; 50 nM recombinant AMPK, 2 μM ATP, 30° C., 2 hr. On the procedure:
Recombinant human AMPK α1β1γ1, α2β1γ1 or AMPK α subunit truncations α1(1-335), α1(1-394) and α2(1-394) were constructed, expressed and purified as described previously (Pang, T., Zhang, Z. S., Gu, M., Qiu, B. Y., Yu, L. F., Cao, P. R., Shao, W., Su, M. B., Li, J. Y., Nan, F. J., and Li, J. (2008)). Rat liver AMPK heterotrimer enzyme was obtained from Upstate (Billerica, Mass., U.S.A.).
Scintillation Proximity Assay
Before the Scintillation Proximity Assay (SPA) assay, 200 nM recombinant AMPK proteins (α1β1γ1, α2β1γ1, α1(1-335), α1(1-394) or α2(1-394)) were fully phosphorylated as described previously (Pang et al., 2008). SPA reactions were performed in 96-well plates at a final volume of 501 containing 20 mM Tris-HCl pH 7.5, 5 mM MgCl2, 1 mM DTT, 2 μM biotin-SAMS, 2 μM ATP, 0.2 μCi/well [γ-^33P]ATP, and various amount of activator. Reactions were initiated by the addition of 50 nM recombinant AMPK proteins to the reaction solutions and incubated at 30° C. for 2 hr. After that, reactions were terminated by the addition of 401 stop solution containing 80 μg streptavidin-coated SPA beads per well, 50 mM EDTA, 0.1% Triton X-100 in PBS, pH 7.5 and incubated for 1 hr. Finally, a 160 ul suspension solution containing 2.4 M CsCl, 50 mM EDTA, and 0.1% Triton X-100 in PBS (pH 7.5) was added to the reaction solution to suspend SPA beads completely. SPA signals were determined with a Wallac MicroBeta plate counter (PerkinElmer) 30 min later for calculation of the amount of product formed. The amount of products formed in 2 hr was plotted against activator concentrations to determine the effective concentration of the activator (EC50) required for 50% of maximal enzyme activity.
Compounds as described above have EC50 values between 0.5 uM and 50 uM, preferred compounds have EC50 values between 0.5 uM and 10 uM, particularly preferred compounds have EC50 values between 0.5 uM and 1 uM.

On to `COC(=O)c1cccc(CN2C(=O)/C(=C(\c3ccccc3)c3cc(C(F)(F)F)ccc3Cl)c3ccccc32)c1` [Example 24, 3-{3-[1-(2-Chloro-5-trifluoromethyl-phenyl)-1-phenyl-meth-(E)-ylidene]-2-oxo-2,3-dihydro-indol-1-ylmethyl}-benzoic acid methyl ester], for which the EC50 was determined as 4.82 µM.

On to `COC(=O)c1cccc(CN2C(=O)/C(=C(\c3ccccc3)c3ccc(Cl)cc3)c3c(F)cccc32)c1` [Example 25, 3-{3-[1-(4-Chloro-phenyl)-1-phenyl-meth-(E)-ylidene]-4-fluoro-2-oxo-2,3-dihydro-indol-1-ylmethyl}-benzoic acid methyl ester], for which the EC50 was 2.73 µM.

Turning to `COC(=O)c1cccc(CN2C(=O)/C(=C(\c3ccccc3)c3ccc(Cl)cc3)c3ccc(F)cc32)c1` [Example 26, 3-{3-[1-(4-Chloro-phenyl)-1-phenyl-meth-(E)-ylidene]-6-fluoro-2-oxo-2,3-dihydro-indol-1-ylmethyl}-benzoic acid methyl ester], the EC50 came out at 1.25 µM.

For the compound `COC(=O)c1cccc(CN2C(=O)/C(=C(\c3ccccc3)c3cccc(Br)c3)c3ccccc32)c1` [Example 27, 3-{3-[1-(3-Bromo-phenyl)-1-phenyl-meth-(E)-ylidene]-2-oxo-2,3-dihydro-indol-1-ylmethyl}-benzoic acid methyl ester], the EC50 turned out to be 2.73 µM.

Regarding `COC(=O)c1cccc(CN2C(=O)/C(=C(\c3ccccc3)c3ccccc3SC)c3ccccc32)c1` [Example 28, 3-{3-[1-(2-Methylsulfanyl-phenyl)-1-phenyl-meth-(E)-ylidene]-2-oxo-2,3-dihydro-indol-1-ylmethyl}-benzoic acid methyl ester], the EC50 is 0.8 µM.

With `COC(=O)c1cccc(CN2C(=O)/C(=C(\c3ccccc3)c3ccc(Cl)cc3)c3cc(F)cc(Cl)c32)c1` [Example 29, 3-{7-Chloro-3-[1-(4-chloro-phenyl)-1-phenyl-meth-(E)-ylidene]-5-fluoro-2-oxo-2,3-dihydro-indol-1-ylmethyl}-benzoic acid methyl ester], the EC50 was 2.36 µM.

`COC(=O)c1cccc(CN2C(=O)/C(=C(\c3ccccc3)c3cccc(C(F)(F)F)c3)c3ccccc32)c1` [Example 30, 3-{2-Oxo-3-[1-phenyl-1-(3-trifluoromethyl-phenyl)-meth-(E)-ylidene]-2,3-dihydro-indol-1-ylmethyl}-benzoic acid methyl ester]: the EC50 turned out to be 1.65 µM.

As for `COC(=O)c1cccc(CN2C(=O)/C(=C(\c3ccccc3)c3ccc(S(N)(=O)=O)cc3)c3ccccc32)c1` [Example 31, 3-{2-Oxo-3-[1-phenyl-1-(4-sulfamoyl-phenyl)-meth-(E)-ylidene]-2,3-dihydro-indol-1-ylmethyl}-benzoic acid methyl ester], the EC50 stood at 0.77 µM.

Take `COC(=O)c1cccc(CN2C(=O)/C(=C(\c3ccccc3)c3ccccc3S(C)(=O)=O)c3ccccc32)c1` [Example 32, 3-{3-[1-(2-Methanesulfonyl-phenyl)-1-phenyl-meth-(E)-ylidene]-2-oxo-2,3-dihydro-indol-1-ylmethyl}-benzoic acid methyl ester]: the concentration giving a half-maximal response (EC50) was 10.5 µM.

With `COC(=O)c1cccc(CN2C(=O)/C(=C(\c3ccccc3)c3ccsc3)c3ccccc32)c1` [Example 33, 3-{2-Oxo-3-[1-phenyl-1-thiophen-3-yl-meth-(E)-ylidene]-2,3-dihydro-indol-1-ylmethyl}-benzoic acid methyl ester], the EC50 was 5.56 µM.

Consider `COC(=O)c1cccc(CN2C(=O)/C(=C(/c3ccccc3)c3ccc(Cl)cc3)c3ccccc32)c1` [Example 34, 3-{3-[1-(4-Chloro-phenyl)-1-phenyl-meth-(Z)-ylidene]-2-oxo-2,3-dihydro-indol-1-ylmethyl}-benzoic acid methyl ester], for which the EC50 was 1.8 µM.

For `COC(=O)c1cccc(CN2C(=O)/C(=C(\c3ccc(Cl)cc3)c3ccc(C(F)(F)F)cc3)c3ccccc32)c1` [Example 35, 3-{3-[1-(4-Chloro-phenyl)-1-(4-trifluoromethyl-phenyl)-meth-(Z)-ylidene]-2-oxo-2,3-dihydro-indol-1-ylmethyl}-benzoic acid methyl ester], the EC50 came to 2.95 µM.

For `CCOC(=O)COc1ccc(CN2C(=O)/C(=C(\c3ccccc3)c3ccc(Cl)cc3)c3ccccc32)cc1` [Example 36, (4-{3-[1-(4-Chloro-phenyl)-1-phenyl-meth-(E)-ylidene]-2-oxo-2,3-dihydro-indol-1-ylmethyl}-phenoxy)-acetic acid ethyl ester], the EC50 is 3.69 µM.

Turning to `CC(C)NC(=O)c1cccc(CN2C(=O)/C(=C(\c3ccccc3)c3ccc(Cl)cc3)c3ccccc32)c1` [Example 37, 3-{3-[1-(4-Chloro-phenyl)-1-phenyl-meth-(E)-ylidene]-2-oxo-2,3-dihydro-indol-1-ylmethyl}-N-isopropyl-benzamide], the EC50 stood at 4.49 µM.

Consider `COC(=O)c1ccc(CN2C(=O)/C(=C(\c3ccccc3)c3ccc(Cl)cc3)c3ccccc32)nc1` [Example 38, 6-{3-[1-(4-Chloro-phenyl)-1-phenyl-meth-(E)-ylidene]-2-oxo-2,3-dihydro-indol-1-ylmethyl}-nicotinic acid methyl ester], for which the EC50 is 2.91 µM.

Consider `CCOC(=O)c1csc(CN2C(=O)/C(=C(\c3ccccc3)c3ccc(Cl)cc3)c3ccccc32)n1` [Example 39, 2-{3-[1-(4-Chloro-phenyl)-1-phenyl-meth-(E)-ylidene]-2-oxo-2,3-dihydro-indol-1-ylmethyl}-thiazole-4-carboxylic acid ethyl ester], for which the EC50 was determined as 1.57 µM.

On to `O=C1/C(=C(\c2ccccc2)c2ccc(Cl)cc2)c2ccccc2N1Cc1cc(O)c(O)c(O)c1` [Example 41, 3-[1-(4-Chloro-phenyl)-1-phenyl-meth-(E)-ylidene]-1-(3,4,5-trihydroxy-benzyl)-1,3-dihydro-indol-2-one], for which the EC50 amounted to 4.51 µM.

As to `O=C1/C(=C(/c2ccccc2)c2ccc(Cl)cc2)c2ccccc2N1Cc1cc(O)c(O)c(O)c1` [Example 42, 3-[1-(4-Chloro-phenyl)-1-phenyl-meth-(Z)-ylidene]-1-(3,4,5-trihydroxy-benzyl)-1,3-dihydro-indol-2-one], the EC50 came out at 4.5 µM.

Regarding `O=C1/C(=C(\c2ccccc2)c2ccc(Cl)cc2)c2ccccc2N1Cc1ccc(O)cc1` [Example 43, 3-[1-(4-Chloro-phenyl)-1-phenyl-meth-(E)-ylidene]-1-(4-hydroxy-benzyl)-1,3-dihydro-indol-2-one], the EC50 was 3.23 µM.

`O=C(O)c1cccc(CN2C(=O)/C(=C(\c3ccccc3)c3ccc(Cl)cc3)c3ccccc32)c1` [Example 44, 3-{3-[1-(4-Chloro-phenyl)-1-phenyl-meth-(E)-ylidene]-2-oxo-2,3-dihydro-indol-1-ylmethyl}-benzoic acid]: the EC50 amounted to 1.21 µM.

Turning to `O=C(O)c1cccc(CN2C(=O)/C(=C(\c3ccccc3)c3ccc(F)cc3)c3ccccc32)c1` [Example 45, 3-{3-[1-(4-Fluoro-phenyl)-1-phenyl-meth-(E)-ylidene]-2-oxo-2,3-dihydro-indol-1-ylmethyl}-benzoic acid], the EC50 turned out to be 1.89 µM.

For the compound `COc1ccc(/C(=C2/C(=O)N(Cc3cccc(C(=O)O)c3)c3ccccc32)c2ccccc2)cc1` [Example 46, 3-{3-[1-(4-Methoxy-phenyl)-1-phenyl-meth-(E)-ylidene]-2-oxo-2,3-dihydro-indol-1-ylmethyl}-benzoic acid], the EC50 came out at 4.02 µM.

For `COc1ccccc1/C(=C1\C(=O)N(Cc2cccc(C(=O)O)c2)c2ccccc21)c1ccc(Cl)cc1` [Example 47, 3-{3-[1-(4-Chloro-phenyl)-1-(2-methoxy-phenyl)-meth-(Z)-ylidene]-2-oxo-2,3-dihydro-indol-1-ylmethyl}-benzoic acid], the EC50 is 2.38 µM.

`O=C(O)c1cccc(CN2C(=O)/C(=C(\c3ccccc3)c3ccc(C(F)(F)F)cc3)c3ccccc32)c1` [Example 48, 3-{2-Oxo-3-[1-phenyl-1-(4-trifluoromethyl-phenyl)-meth-(E)-ylidene]-2,3-dihydro-indol-1-ylmethyl}-benzoic acid]: the EC50 was 3.15 µM.

Regarding `O=C(O)c1cccc(CN2C(=O)/C(=C(\c3ccccc3)c3ccccc3OC(F)(F)F)c3ccccc32)c1` [Example 49, 3-{2-Oxo-3-[1-phenyl-1-(2-trifluoromethoxy-phenyl)-meth-(E)-ylidene]-2,3-dihydro-indol-1-ylmethyl}-benzoic acid], the EC50 was 1.75 µM.

For the compound `O=C(O)c1cccc(CN2C(=O)/C(=C(\c3ccccc3)c3ccc(F)c(Cl)c3)c3ccccc32)c1` [Example 50, 3-{3-[1-(3-Chloro-4-fluoro-phenyl)-1-phenyl-meth-(E)-ylidene]-2-oxo-2,3-dihydro-indol-1-ylmethyl}-benzoic acid], the EC50 worked out at 5.89 µM.
